How the values were obtained:
[1] = test system: subjects with primary or secondary progressive multiple sclerosis; assay: Phase 2 randomized, double-blind, placebo-controlled 96 week study: progression of disability (EDSS), Cox proportional-hazards regression; type: in vivo, human; details: for Risk of Confirmed Disability Progression: Cox Hazard Ratio (ibudilast vs. placebo): ibudilast 100 mg/d, 90% CI
Protocol: A total of 255 male and female subjects from 21 to 65 years old, inclusive, were enrolled into one of two treatment arms (ibudilast 100 mg/d or matching-placebo). […] During the study, subjects were allowed to change medications from one injectable to the other. […] Inhaled and topical steroids are allowed. If a relapse episode occured, a single course of systemic corticosteroids was permitted, as prescribed by the treating neurologist. Subjects returned to the clinic for follow-up visits on a regular basis at Week 4, 8, 12, 24, 36, 48, 60, 72, 84 and 96.
The double-blind Treatment Phase consisted of a Baseline visit followed by 10 scheduled clinic visits. The Baseline Visit had to have occured within 45 days following the Screening Visit. At the Baseline Visit (Day 1), subjects who completed all of the screening assessments and continued to meet eligibility criteria were randomized to one of two treatment groups (ibudilast 100 mg/d or placebo) in a 1:1 ratio.
Subjects took their first dose of study medication (30 mg ibudilast or placebo) on the evening of the Baseline Visit (Day 1). On the morning of Day 2, all subjects begun a 3 capsule BID dosing regimen through Day 14. Subjects randomized to ibudilast started at 60 mg/d (30 mg BID) on Day 2 and remained on 60 mg/d through Day 14. Beginning on Day 15, all subjects increased dosing to 5 capsules BID regimen; those randomized to the ibudilast treatment arm were taking 100 mg/d.
After Day 15, subjects with intolerable side-effects (e.g., nausea, diarrhea, vertigo) were allowed to reduced their dose to either 4 capsules twice a day (80 mg/d for those taking ibudilast) or 3 capsules twice a day (60 mg/d for those taking ibudilast). Subjects with intolerable side-effects (e.g., nausea, diarrhea, vertigo) at the end of Day 14 were allowed to continue taking 3 capsules twice a day at the Investigator's discretion. At the Investigator's discretion, the daily dose of ibudilast were potentially adjusted between 3 capsules twice a day, 4 capsules twice a day, and 5 capsules twice a day over the first 8 weeks of treatment. At the Investigator's discretion, the daily dose of ibudilast could have been divided and taken three times per day if needed to improve tolerability. […] The dosing interval was either twice a day or 3 times per day, at the Investigator's discretion. The dosing interval could also be changed to between twice and three times per day over the course of the entire study, at the Investigator's discretion.
Progression of disability was measured according to the score on the Expanded Disability Status Scale (EDSS; range, 0 to 10 in 0.5-point increments, with higher scores indicating more disability) with the use of Cox proportional-hazards regression. Confirmed disability progression was defined as an increase in the EDSS score of at least 1.0 point from baseline (or an increase of ≥0.5 points for patients with a baseline EDSS score of >5.0) that was sustained for at least 20 weeks.

[2] = Sanftner et al., Xenobiotica 2009; cited from earlier work

Q: For `CC(C)C(=O)c1c(C(C)C)nn2ccccc12` [ibudilast, 3-isobutyryl-2-isopropylpyrazolo[1,5-a]pyridine], which “hazard ratio for 20-week confirmed disability progression (as measured by the EDSS score) with ibudilast as compared with placebo” value ([1]; all subjects, ibudilast 100 mg/d oral vs placebo, 96 weeks, 95% CI) is on record?
A: 0.74

Q: And the “probability of no progression at week 72” value ([1]; subgroup receiving interferon-beta, ibudilast arm (placebo arm 0.804))?
A: 0.952

Q: And the “proportion of subjects with disability progression at week 96 (not confirmed progression): ibudilast vs. placebo risk difference” value ([1]; subgroup receiving interferon-beta, week 96, 90% CI: −0.499 to −0.068)?
A: −0.283

Q: And the “time to confirmed disability progression, ibudilast compared with placebo (in words)” value ([1]; subgroup taking GA as concomitant medication)?
A: the placebo arm was superior to ibudilast

Q: What about the “Risk of Confirmed Disability Progression: Cox Hazard Ratio (ibudilast vs. placebo)” value (“Risk … Cox Hazard Ratio (ibudilast vs. placebo)” below) ([1]; subgroup: concomitant medication taking GA (glatiramer acetate)) of the same compound?
A: 1.229

Q: And the “Risk … Cox Hazard Ratio (ibudilast vs. placebo)” value ([1]; subgroup: concomitant medication taking Interferon-Beta)?
A: 0.238

Q: What about the “Risk … Cox Hazard Ratio (ibudilast vs. placebo)” value ([1]; subgroup: no concomitant glatiramer acetate or interferon-beta) of the same compound?
A: 0.672

Q: What about the “time to confirmed disability progression, ibudilast compared with placebo (in words)” value ([1]; the other two subgroups (concomitant interferon-beta; no concomitant medication)) of the same compound?
A: ibudilast was better than placebo

Q: And the CNS penetration [2]?
A: good CNS penetration

From US10946071B2 (MediciNova, Inc., priority 2018, dated 2021)
